Data from patent publication US5821239A (priority 1996, dated 1998).
Read-outs that look alike come from different tables or passages of the source.

Legend:
[1] = target: Brain AChE (acetylcholinesterase, rat striatum) (Rattus norvegicus, UniProt P37136); assay: biochemical; set-up: species or system rat (male Wistar)
[2] = system: Scopolamine Induced Memory Deficit (mice); conditions: mouse, in vivo, sc

Sequence of Brain AChE (acetylcholinesterase, rat striatum) (P37136 32-614): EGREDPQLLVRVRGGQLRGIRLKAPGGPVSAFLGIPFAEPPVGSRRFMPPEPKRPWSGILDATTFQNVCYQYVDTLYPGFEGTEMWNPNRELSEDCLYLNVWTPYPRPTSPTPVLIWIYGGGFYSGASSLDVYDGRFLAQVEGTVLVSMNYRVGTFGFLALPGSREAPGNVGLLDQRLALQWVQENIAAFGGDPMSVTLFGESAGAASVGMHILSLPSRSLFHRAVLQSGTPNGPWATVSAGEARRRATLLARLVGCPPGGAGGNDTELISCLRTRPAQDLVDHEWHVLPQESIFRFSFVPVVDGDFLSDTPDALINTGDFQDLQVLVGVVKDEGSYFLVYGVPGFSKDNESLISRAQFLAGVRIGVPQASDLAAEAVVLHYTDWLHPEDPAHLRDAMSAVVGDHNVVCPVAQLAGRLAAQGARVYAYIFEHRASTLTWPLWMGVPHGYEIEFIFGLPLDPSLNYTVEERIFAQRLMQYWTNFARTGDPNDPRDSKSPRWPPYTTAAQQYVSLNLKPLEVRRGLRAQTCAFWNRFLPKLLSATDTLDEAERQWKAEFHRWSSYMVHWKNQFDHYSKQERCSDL

SMILES | IC50 [1] [µM] | % of Animals with Scopolamine Induced Memory Deficit Reversal ([2]; 0.1 mg/kg) [%] | % of Animals with Scopolamine Induced Memory Deficit Reversal ([2]; 0.3 mg/kg) [%]
CNC(=O)Oc1cnccc1N=CN(C)C [4-[[(Dimethylamino)methylene]amino]-3-pyridinol methylcarbamate] | 12.6 |  | 
CCNC(=O)Oc1cnccc1N=CN(C)C [4-[[(Dimethylamino)methylene]amino]-3-pyridinol ethylcarbamate] | 9.37 | 20.0 | 21.4
